In a compilation of properties of binary mixtures (doi:10.1039/b315616h):

Assay: xn = mol fraction of the nth substance listed
Conditions: 101.3 kPa, x2 = 0.865

CCCCCC[n+]1ccn(C)c1.F[B-](F)(F)F + CCCCCO
Conditions	viscosity [mPa·s]
314.94 K	5.47
315.04 K	5.22
315.1 K	5.14
315.15 K	5.09
315.2 K	5.04
315.24 K	5
315.3 K	4.96
315.44 K	4.87
315.54 K	4.83
315.58 K	4.8
315.71 K	4.76
315.75 K	4.74
315.88 K	4.7
315.91 K	4.69
315.94 K	4.68
315.98 K	4.67
316.07 K	4.64
316.22 K	4.6
316.42 K	4.54
316.73 K	4.46
317.23 K	4.35
319.34 K	3.98
321.14 K	3.74
323.16 K	3.51
325.69 K	3.262
328.15 K	3.047
